# Test results published in ChEMBL document CHEMBL4184150, “Microcystins: Synthesis and structure-activity relationship studies toward PP1 and PP2A” (Bioorg Med Chem, 2018).
# How the values were obtained:
# [1] = organism: Oryctolagus cuniculus; test: Selectivity ratio of IC50 for rabbit skeletal muscle PP2A catalytic subunit to IC50 for rabbit skeletal muscle PP1 catalytic subunit
# [2] = Inhibition of rabbit skeletal muscle PP2A catalytic subunit using [32P]-phosphorylase alpha as substrate pretreated for 10 mins followed by substrate addition; parameters: species or system Oryctolagus cuniculus
# [3] = Inhibition of rabbit skeletal muscle PP1 catalytic subunit using [32P]-phosphorylase alpha as substrate pretreated for 10 mins followed by substrate addition; parameters: species or system Oryctolagus cuniculus
# [4] = molecular target: Serine/threonine-protein phosphatase 2A catalytic subunit alpha isoform (Homo sapiens, UniProt P67775); test: Inhibition of recombinant human PP2A catalytic subunit L309 deletion mutant using DIFMUP as substrate pretreated for 10 mins followed by substrate addition measured every 15 secs for 30 mins by fluorescence assay
# [5] = molecular target: Serine/threonine-protein phosphatase PP1-alpha catalytic subunit (Homo sapiens, UniProt P62136); test: Inhibition of recombinant PP1alpha catalytic subunit (unknown origin) using DIFMUP as substrate pretreated for 10 mins followed by substrate addition measured every 15 secs for 30 mins by fluorescence assay
# Chain of Serine/threonine-protein phosphatase PP1-alpha catalytic subunit (P62136 whole entry): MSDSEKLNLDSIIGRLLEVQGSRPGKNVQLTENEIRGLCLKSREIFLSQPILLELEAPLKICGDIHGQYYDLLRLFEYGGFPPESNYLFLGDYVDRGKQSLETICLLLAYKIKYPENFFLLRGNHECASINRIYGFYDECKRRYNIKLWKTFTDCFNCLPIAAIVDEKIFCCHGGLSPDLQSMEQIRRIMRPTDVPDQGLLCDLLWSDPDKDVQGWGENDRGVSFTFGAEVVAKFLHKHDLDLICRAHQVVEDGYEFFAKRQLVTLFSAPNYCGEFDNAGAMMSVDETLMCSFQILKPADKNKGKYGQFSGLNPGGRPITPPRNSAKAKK
# Chain of Serine/threonine-protein phosphatase 2A catalytic subunit alpha isoform (P67775 whole entry, looked up, canonical isoform): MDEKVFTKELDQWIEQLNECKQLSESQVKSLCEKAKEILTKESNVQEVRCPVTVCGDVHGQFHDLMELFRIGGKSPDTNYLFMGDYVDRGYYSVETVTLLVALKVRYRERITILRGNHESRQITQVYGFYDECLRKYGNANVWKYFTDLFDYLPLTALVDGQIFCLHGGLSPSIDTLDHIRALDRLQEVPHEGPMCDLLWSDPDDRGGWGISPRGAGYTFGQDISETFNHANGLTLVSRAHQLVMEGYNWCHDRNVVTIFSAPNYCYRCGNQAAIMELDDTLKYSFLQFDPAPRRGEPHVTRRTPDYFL
smiles,measurement,setting,value
C=C1C(=O)N[C@H](C)C(=O)N[C@@H](CC2CCCCC2)C(=O)N[C@@H](C(=O)O)[C@H](C)C(=O)N[C@@H](C)C(=O)N[C@@H](/C=C/C(C)=C/[C@H](C)[C@H](Cc2ccccc2)OC)[C@H](C)C(=O)N[C@@H](C(=O)O)CCC(=O)N1C,Ratio IC50,[1],7
same,IC50,[2],3.4 nM
same,IC50,[3],0.52 nM
CC(C)C[C@@H]1NC(=O)[C@@H](C)NC(=O)CN(C)C(=O)CC[C@H](C(=O)O)NC(=O)[C@@H](C)[C@H](C)NC(=O)[C@H](Cc2ccccc2)NC(=O)C[C@H](C(=O)O)NC1=O,IC50,[4],900 nM
same,IC50,[5],254 µM
